Reference: patent US10202361B2, “Pyridazinones as herbicides” (E I DU PONT DE NEMOURS AND COMPANY, priority 2014, dated 2019)

Legend:
Type in all cases: in vivo
[1] = system: sandbur (southern sandbur, Cenchrus echinatus); test: Test E pre-/postemergence greenhouse herbicide test; conditions: scale 0 to 100
From the text: (§1) Seeds of plant species selected from corn (Zea mays), soybean (Glycine max), lambsquarters (Chenopodium album), poinsettia, wild (wild poinsettia, Euphorbia heterophylla), pigweed, palmer (palmer pigweed, Amaranthus palmeri), waterhemp (common waterhemp, Amaranthus rudis), surinam grass (Brachiaria decumbens), crabgrass, large (large crabgrass Digitaria sanguinalis), crabgrass, Brazil (Brazilian crabgrass, Digitaria horizontalis), panicum, fall (fall panicum, Panicum dichotomiflorum), foxtail, giant (giant foxtail, Setaria faberii), foxtail, green (green foxtail, Setaria viridis), goosegrass (Eleusine indica), johnsongrass (Sorghum halepense), ragweed (common ragweed, Ambrosia elatior), barnyardgrass (Echinochloa crus-galli), sandbur (southern sandbur, Cenchrus echinatus), arrowleaf sida (Sida rhombifolia), ryegrass, Italian (Italian ryegrass, Lolium multiflorum), dayflower, VA (Virginia dayflower, Commelina virginica), field bindweed (Convolvulus arvensis), cocklebur (common cocklebur, Xanthium strumarium), morningglory (Ipomoea coccinea), nightshade (eastern black nightshade, Solanum ptycanthum), kochia (Kochia scoparia), nutsedge, yellow (yellow nutsedge, Cyperus esculentus), smartweed (ladysthumb smartweed, Polygonum persicaria), velvetleaf (Abutilon theophrasti), and beggarticks (hairy beggarticks, Bidens pilosa), were planted into a silt loam soil and treated preemergence with test chemicals formulated in a non-phytotoxic solvent mixture which included a surfactant.
(§2) At the same time, plants from these crop and weed species and also waterhemp_RES1, (ALS & Triazine resistant common waterhemp, Amaranthus rudis), and waterhemp_RES2, (ALS & HPPD resistant common waterhemp, Amaranthus rudis) were planted in pots containing Redi-Earth® planting medium (Scotts Company, 14111 Scottslawn Road, Marysville, Ohio 43041) comprising spaghnum peat moss, vermiculite, wetting agent and starter nutrients were treated with postemergence applications of test chemicals formulated in the same manner. Plants ranged in height from 2 to 18 cm for postemergence treatments (1- to 4-leaf stage). Treated plants and controls were maintained in a greenhouse for 14 to 21 d, after which time all species were compared to controls and visually evaluated. Plant response ratings, summarized in Table E, are based on a scale of 0 to 100 where 0 is no effect and 100 is complete control. A dash (-) response means no test result.

[2] = system: nightshade (eastern black nightshade, Solanum ptycanthum); test: as above; conditions: Preemergence, scale 0 to 100
From the text: as §1, §2

[3] = system: cocklebur (common cocklebur, Xanthium strumarium); test: as above; conditions: Preemergence, scale 0 to 100
[4] = system: lambsquarters (Chenopodium album); test: Test D pre-/postemergence controlled growth environment herbicide test; conditions: scale 0 to 100
How it was run: (§3)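 Preemergence: seeds sown in silt loam soil and sprayed with test chemicals in a non-phytotoxic solvent mixture containing surfactant. Postemergence: plants grown in peat/vermiculite planting medium and sprayed at 2 to 18 cm (1- to 4-leaf stage). Visual rating versus controls after 14 to 21 d, 0 (no effect) to 100 (complete control).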

[5] = system: oat, wild (wild oat, Avena fatua); test: as above; conditions: scale 0 to 100
How it was run: as §3

kochia (Kochia scoparia) = test: as above; conditions: scale 0 to 100
How it was run: as §3

[6] = system: oilseed rape (Brassica napus); test: as above; conditions: scale 0 to 100
How it was run: as §3

[7] = system: field violet (Viola arvensis); test: as above; conditions: scale 0 to 100
How it was run: as §3

Structure (SMILES): COc1cc(=O)n(-c2ccc(F)cc2)nc1Cc1ccnc(C(F)(F)F)c1 [Compound 17, 2-(4-fluorophenyl)-5-methoxy-6-[[2-(trifluoromethyl)-4-pyridinyl]methyl]-3 (2H)-pyridazinone]
- Plant response rating: Sandbur ([1]; Postemergence, 16 g ai/ha): 10
- Plant response rating: Sandbur ([1]; Postemergence, 31 g ai/ha): 20
- Plant response rating: Sandbur ([1]; Postemergence, 62 g ai/ha): 20
- Plant response rating: Sandbur ([1]; Postemergence, 125 g ai/ha): 35
- Plant response rating: Sandbur ([1]; Postemergence, 250 g ai/ha): 75
- Plant response rating: Sandbur ([1]; Preemergence, 16 g ai/ha): 0
- Plant response rating: Sandbur ([1]; Preemergence, 31 g ai/ha): 5
- Plant response rating: Sandbur ([1]; Preemergence, 62 g ai/ha): 40
- Plant response rating: Sandbur ([1]; Preemergence, 125 g ai/ha): 70
- Plant response rating: Sandbur ([1]; Preemergence, 250 g ai/ha): 98
- Plant response rating: Nightshade ([2]; 16 g ai/ha): 0
- Plant response rating: Nightshade ([2]; 31 g ai/ha): 80
- Plant response rating: Nightshade ([2]; 62 g ai/ha): 98
- Plant response rating: Nightshade ([2]; 125 g ai/ha): 98
- Plant response rating: Nightshade ([2]; 250 g ai/ha): 98
- Plant response rating: Cocklebur ([3]; 16 g ai/ha): 0
- Plant response rating: Cocklebur ([3]; 62 g ai/ha): 0
- Plant response rating ([4]; Postemergence, 31 g ai/ha): 10
- Plant response rating ([4]; Postemergence, 62 g ai/ha): 50
- Plant response rating ([4]; Postemergence, 125 g ai/ha): 80
- Plant response rating ([4]; Postemergence, 250 g ai/ha): 95
- Plant response rating ([4]; Postemergence, 500 g ai/ha): 100
- Plant response rating ([4]; Preemergence, 31 g ai/ha): 90
- Plant response rating ([4]; Preemergence, 62 g ai/ha): 95
- Plant response rating ([4]; Preemergence, 250 g ai/ha): 90
- Plant response rating ([4]; Preemergence, 500 g ai/ha): 90
- Plant response rating ([5]; Postemergence, 31 g ai/ha): 10
- Plant response rating ([5]; Postemergence, 62 g ai/ha): 10
- Plant response rating ([5]; Postemergence, 125 g ai/ha): 10
- Plant response rating ([5]; Postemergence, 250 g ai/ha): 20
- Plant response rating ([5]; Postemergence, 500 g ai/ha): 50
- Plant response rating ([5]; Preemergence, 31 g ai/ha): 0
- Plant response rating ([5]; Preemergence, 62 g ai/ha): 0
- Plant response rating ([5]; Preemergence, 125 g ai/ha): 50
- Plant response rating ([5]; Preemergence, 250 g ai/ha): 75
- Plant response rating ([5]; Preemergence, 500 g ai/ha): 85
- Plant response rating (kochia (Kochia scoparia); Postemergence, 31 g ai/ha): 25
- Plant response rating (kochia (Kochia scoparia); Postemergence, 62 g ai/ha): 60
- Plant response rating (kochia (Kochia scoparia); Postemergence, 125 g ai/ha): 70
- Plant response rating (kochia (Kochia scoparia); Postemergence, 250 g ai/ha): 80
- Plant response rating (kochia (Kochia scoparia); Postemergence, 500 g ai/ha): 90
- Plant response rating (kochia (Kochia scoparia); Preemergence, 31 g ai/ha): 100
- Plant response rating (kochia (Kochia scoparia); Preemergence, 62 g ai/ha): 100
- Plant response rating (kochia (Kochia scoparia); Preemergence, 125 g ai/ha): 100
- Plant response rating (kochia (Kochia scoparia); Preemergence, 250 g ai/ha): 100
- Plant response rating (kochia (Kochia scoparia); Preemergence, 500 g ai/ha): 100
- Plant response rating ([6]; Postemergence, 31 g ai/ha): 50
- Plant response rating ([6]; Postemergence, 62 g ai/ha): 55
- Plant response rating ([6]; Postemergence, 125 g ai/ha): 75
- Plant response rating ([6]; Postemergence, 250 g ai/ha): 85
- Plant response rating ([6]; Postemergence, 500 g ai/ha): 100
- Plant response rating ([6]; Preemergence, 31 g ai/ha): 25
- Plant response rating ([6]; Preemergence, 62 g ai/ha): 25
- Plant response rating ([6]; Preemergence, 125 g ai/ha): 40
- Plant response rating ([6]; Preemergence, 250 g ai/ha): 90
- Plant response rating ([6]; Preemergence, 500 g ai/ha): 90
- Plant response rating ([7]; Postemergence, 31 g ai/ha): 60
- Plant response rating ([7]; Postemergence, 62 g ai/ha): 70
- Plant response rating ([7]; Postemergence, 125 g ai/ha): 80
- Plant response rating ([7]; Postemergence, 250 g ai/ha): 100
- Plant response rating ([7]; Postemergence, 500 g ai/ha): 100
- Plant response rating ([7]; Preemergence, 31 g ai/ha): 75
- Plant response rating ([7]; Preemergence, 62 g ai/ha): 85
- Plant response rating ([7]; Preemergence, 125 g ai/ha): 90
- Plant response rating ([7]; Preemergence, 250 g ai/ha): 100
- Plant response rating ([7]; Preemergence, 500 g ai/ha): 100
